Source: patent US11857521B1, “Anti-mycobacterial drugs” (priority 2022, dated 2024)
Like-named read-outs stand apart in the source and are kept apart here.

What was measured:
[1] = tested on: M. smegmatis; test: Checkerboard assay with OCG; format: cell-based, Mycobacterium smegmatis; conditions: for Interaction / FICI (Fractional Inhibitory Concentration Index): drug in combination with OCG; for FICI (Fractional Inhibitory Concentration Index): range of three experiments
[2] = tested on: M. smegmatis membrane potential (Δψ); conditions: OCG at 2×MIC; CCCP at various concentrations
Description: Bacterial cells were grown to late log-phase in 7H9. Cells were centrifuged at 3000×g for 5 min at 25° C., washed twice and resuspended in 10 mL of 5 mM HEPES buffer, pH 7.2 supplemented with 1 mM glucose. OD600 of the cells was then adjusted to 0.4. The cell suspension was treated with 1 μM of the potentiometric probe 3,3′-Dipropylthiadicarbocyanine Iodide (DiSC3(5)) was added. It was incubated at 37° C., and monitored the quenching of DiSC3(5) dye in the presence of M. smegmatis cells for 30 min. In a black-sided 96-well microtiter plate, polymer solution was added to the plate and serially diluted two-fold in 50 mM HEPES buffer supplemented with 1 mM glucose and 2% DMSO for a final volume of 50 μL per well and 1% DMSO. After 30 min of quenching DiSC3(5), 50 μL of the bacterial suspension with dye was added to the polymer-containing wells. […] Fluorescence was recorded 590/635 nm (excitation/emission) for 1 h every 10 min on a BioTek Synergy H1 plate reader. Assay was performed at least three independent experiments.

[3] = tested on: M. smegmatis mc^2155; format: cell-based, Mycobacterium smegmatis
[4] = tested on: S. aureus ATCC 6538; format: cell-based, Staphylococcus aureus
[5] = tested on: E. coli ATCC 8739; format: cell-based, Escherichia coli
[6] = tested on: B. cepacia ATCC 2516
[7] = tested on: P. aureginosa ATCC 15442
[8] = tested on: C. albicans ATCC 10231
[9] = tested on: M. bovis BCG
[10] = tested on: Mab 3690 S
[11] = tested on: Mab 3690 R
[12] = 2 mM OCG in 100 mM NaCl, titrated with 25 mM NaOH
Description: The pH was measured using a Mettler Toledo in Lab Ultra-Micro pH Probe. The acidified solution was titrated at 5 μL increments of 25 mM NaOH. The pH readings were recorded from pH ˜2.5-11. After plotting ΔpH/Δvolume of NaOH, the two points where the largest change in pH occurred were found. The median volume between the two maxima was identified as the point where pH=pKa. Solution of 100 mM NaCl served as control. Experiment was performed in triplicates.

[13] = tested on: M. smegmatis mc^2155; conditions: 4×MIC for 1 h
Description: Similarly, outer membrane permeability assay using 10 μM N-Phenyl-2-naphthylamine in 4% acetone was used as a non-fluorescent dye that upon hydrophobic interaction, it emits fluorescence signal. Cells were grown to mid-log phase (OD600=0.5), centrifuged at 4000×g for 2 min at 25° C., washed and resuspended in 5 mM HEPES buffer, pH 7.2. Compounds were made in HEPES buffer and 50 μL was added to an optical bottom black-sided 96-well microtiter plate. Then 50 μL of 40 μM NPN solution and 100 μL of cell suspension were added to the plate. Fluorescence was measured at 350/400 nm (excitation/emission) for 1 h. Experiments were performed in triplicates.

[14] = tested on: M. smegmatis mc^2155; conditions: 2×MIC
Description: M. smegmatis mc^2155 was culture as previously described in the MIC assay. […] After treatment period, 500 μL of the solution was centrifuge at 3000×g for 30 s at 25° C. The pellet was resuspended in 1 mL glutaraldehyde/cacodylate fixative solution and stored at −20° C. before imaging. Images were analyzed for significant morphological changes. The frequency of membrane ruffling, membrane delamination, cytosolic leakage, and cells that appeared hollowed (i.e., cell death) were counted and divided by the total cell number per frame. The percent of the observed cell envelope stress indicators was used for statistical analysis.

[15] = tested on: M. smegmatis; conditions: after 2 h of treatment
[16] = tested on: MSMEG_5072; conditions: 2×MIC for an hour, sigA housekeeping gene
Description: (§1) The bacterial cell suspension centrifuged at 40000×g for 5 min at 25° C. and resuspended in 1 mL guanidine thiocyanate (GTC) buffer. The cells were spun down at 12000×g for 5 min and resuspended in 750 μL of TRIzol reagent (Invitrogen), and added to 0.5 mL of 0.1 mm zirconia/silica beads. Cells were lysed in a bead beater for two 1 min intervals with incubation on ice between intervals. Afterwards, 2004 of chloroform was added to the tube, mixed, and spun at 12000×g for 15 min. The aqueous layer was carefully removed to 500 μL of RNase-free ethanol and mixed. From the solution, 700 μL were loaded onto Rnease Kit (Qiagen) miniprep columns and spun at 10000×g for 1 min. The remainder of the solution was then loaded and spun. The column was washed with 700 μL of RW1 buffer and discarded. The column was then washed twice with 500 μL RPE buffer and spun as previously described. The column was transferred to a new tube to elute the sample using 30 μL of RNase-free water and spun.
(§2) To ensure there is DNA-free, the sample was treated using TURBO DNA-free kit (Ambion) where a 1 μL of DNase and 3.5 μL of 10×DNase Buffer were added to the 30 μL of RNA and incubated for 1 h at 37° C. […] The concentration of RNA was determined through a ThermoFisher multichannel NanoDrop and adjusted to 50 ng/mL for cDNA reaction. […]

[17] = tested on: MSMEG_2694; conditions: 2×MIC for an hour, sigA housekeeping gene
Description: as §1, §2

[18] = Mycolicibacterium smegmatis, single agent in checkerboard assay, M. smegmatis, read-out: MIC

In the case of `COc1nc2ccc(Br)cc2cc1[C@@H](c1ccccc1)[C@@](O)(CCN(C)C)c1cccc2ccccc12` [Bedaquiline (BDQ), bedaquiline], the MIC ([1]; Mycolicibacterium smegmatis) is reported as 0.12 µg/mL, the Interaction ([1]; M. smegmatis) is reported as “Synergy” and the “FICI (Fractional Inhibitory Concentration Index)” value ([1]; M. smegmatis) is reported as 0.38-0.5.
In the case of `CC(C)/N=c1\cc2n(-c3ccc(Cl)cc3)c3ccccc3nc-2cc1Nc1ccc(Cl)cc1` [Clofazimine (CLZ), clofazimine], the MIC [1, 18] is reported as 2.5 µg/mL, the Interaction ([1]; M. smegmatis) is reported as “Additive” and the “FICI (Fractional Inhibitory Concentration Index)” value ([1]; M. smegmatis) is reported as 0.5-0.75. The “FICI (Fractional Inhibitory Concentration Index)” value ([1]; M. smegmatis, listed as CLZ) was 0.50-0.75.
With `CO[C@H]1/C=C/O[C@@]2(C)Oc3c(C)c(O)c4c(O)c(c(/C=N/N5CCN(C)CC5)c(O)c4c3C2=O)NC(=O)/C(C)=C\C=C\[C@H](C)[C@H](O)[C@@H](C)[C@@H](O)[C@@H](C)[C@H](OC(C)=O)[C@@H]1C` [Rifampin (RIF), rifampin] the MIC [1, 18] was 8 µg/mL, the Interaction ([1]; M. smegmatis) was “Additive” and the “FICI (Fractional Inhibitory Concentration Index)” value ([1]; M. smegmatis) was 1-2.
With “cyanide m-chlorophenyl hydrazone [CCCP, reference compound]” the “membrane potential (Δψ), DiSC3(5) fluorescence” value [2] was “did not exhibit concentration-dependent potential changes”.
In the case of oligo(carbamoylated guanidine) [OCG], the “change of MIC, Msm cultured in LB compared with 7H9 medium” value [3] is reported as “increased ˜four times”, the “MIC90 Msm” value ([3]; M. smegmatis mc 155, Table 2) is reported as 6 µg/mL and the “MIC90 Msm” value ([3]; Msm mc^2 155 grown in 7H9 medium) is reported as 6 µg/mL. The “MIC90 Msm” value ([3]; Msm mc^2 155 grown in LB) was 25 to 50 µg/mL, the “MIC90 Sa” value [4] was 50 µg/mL and the “MIC90 Ec” value [5] was over 200 µg/mL. The MIC ([1]; single agent in checkerboard assay, M. smegmatis) was 6 µM, the “MIC90 Bc” value [6] was over 200 µg/mL and the “MIC90 Pa” value [7] was over 200 µg/mL. The “MIC90 Ca” value [8] was over 200 µg/mL, the “MIC90 BCG” value [9] was 25 µg/mL and the “MIC90 Mab S” value [10] was 65 µg/mL. For the same compound, the “MIC90 Mab R” value [11] was 188 µg/mL, the “change of MIC, Mab R morphotype compared with S” value [11] was “˜three-fold increase” and the pKa [12] was about 5. The “NPN fluorescence (membrane damage)” value [13] was “no fluorescence intensity increase”, the “TEM: membrane ruffling and delamination” value ([14]; starting from 1 h) was “signs of membrane stress including ruffling and delamination were observed” and the “TEM: frequency of cytosolic leakage, treated vs non-treated” value ([14]; up to 24 h incubation) was “no significant difference”. For the same compound, the “intracellular ATP levels (RLUs/CFUs)” value [15] was “depletion of ATP levels”, the “increased expression level of MSMEG_5072 compared to control Msm” value [16] was 10 fold and the “increased expression level of MSMEG_2694 compared to control Msm” value [17] was 50 fold.
